The record followed here is patent publication US20240043427A1 (Gilead Sciences, Inc., priority 2020, published 2024).

For orientation: EC50 means the concentration giving half of the maximal effect. Lower therefore signals an effect from little substance. As a reminder, the IC50 is the concentration that gives 50% inhibition. Read a high IC50 as weaker potency.

The target in assay [1] is T1, CD73 (Homo sapiens (Human), UniProt P21589). The assay can be described thus: MDA-MB-231 Cell Based CD73 Activity Assay (DMEM). The note with it: MDA-MB-231-GFP cells, DMEM medium with 10% human plasma, 200 uM AMP. On the procedure: MDA-MB-231 Cell Based CD73 Activity Assay (DMEM) MDA-MB-231-GFP cells were seeded in 384-well plates (Greiner 781946) at a density of 3000 cells per well in 50 μL of DMEM medium with 10% HP (human plasma). Cells were plated into assay plate with compounds pre-spotted, for an overnight compound treatment. 50 uL of 400 uM AMP (final concentration will be 200 uM) was added using Bio-tek dispenser. Plates were incubated for 100 mins. […] The samples were analyzed using Rapid fire.

The target in assay [2] is T1, CD73. In kind it is biochemical. The note with it: 1 mM NaH2PO4 in enzyme buffer, CD73 0.3 nM, AMP 15 uM.

T1 sequence (P21589 27-574): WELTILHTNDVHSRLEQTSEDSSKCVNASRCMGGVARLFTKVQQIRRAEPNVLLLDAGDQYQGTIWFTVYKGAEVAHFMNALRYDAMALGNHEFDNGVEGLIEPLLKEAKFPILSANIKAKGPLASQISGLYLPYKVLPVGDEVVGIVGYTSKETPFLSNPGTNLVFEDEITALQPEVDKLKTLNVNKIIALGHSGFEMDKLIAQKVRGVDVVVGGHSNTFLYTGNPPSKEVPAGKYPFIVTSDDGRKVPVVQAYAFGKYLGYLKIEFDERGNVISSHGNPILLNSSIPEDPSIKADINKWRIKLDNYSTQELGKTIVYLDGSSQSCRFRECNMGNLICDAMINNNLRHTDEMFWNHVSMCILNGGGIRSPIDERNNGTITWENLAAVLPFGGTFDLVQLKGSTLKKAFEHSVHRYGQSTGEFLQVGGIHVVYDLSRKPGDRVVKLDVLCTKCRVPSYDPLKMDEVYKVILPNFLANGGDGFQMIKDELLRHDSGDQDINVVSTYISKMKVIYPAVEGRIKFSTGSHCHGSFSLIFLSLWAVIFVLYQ

As to `O=c1[nH]cc(-c2cc(OCC(F)(F)C3CC3)c3nccn3n2)c(=O)[nH]1` [Example 689, 5-(8-(2-cyclopropyl-2,2-difluoroethoxy)imidazo[1,2-b]pyridazin-6-yl)pyrimidine-2,4(1H,3H)-dione], at CD73 [1], the EC50 stood at 10.6 nM. The molecule also came in with an IC50 against CD73 [2] of 3.02 nM.
For `O=c1[nH]cc(-c2cc(N3CC[C@@H](Oc4ccc(F)cc4)C3)c3nccn3n2)c(=O)[nH]1` [Example 240, (R)-5-(8-(3-(4-fluorophenoxy)pyrrolidin-1-yl)imidazo[1,2-b]pyridazin-6-yl)pyrimidine-2,4(1H,3H)-dione], in that order: 3.79 nM and 0.28 nM.
Regarding `O=c1[nH]cc(-c2cc([C@H]3C[C@@H]3c3ccc4cnn(-c5ccc(C(F)(F)F)cn5)c4c3)c3nccn3n2)c(=O)[nH]1` (racemic) [Example 383, 5-(8-((1S,2S)-2-(1-(5-(trifluoromethyl)pyridin-2-yl)-1H-indazol-6-yl)cyclopropyl)imidazo[1,2-b]pyridazin-6-yl)pyrimidine-2,4(1H,3H)-dione], the concentration giving a half-maximal response (EC50) at CD73 [1] came to 49.3 nM. Moreover, the half-maximal inhibitory concentration (IC50) against CD73 [2] was determined as 1.83 nM.
On to `COC1CN(c2cc(-c3c[nH]c(=O)[nH]c3=O)nn3ccnc23)CC1(F)F` (centres unmarked) [Example 473, 5-(8-(3,3-difluoro-4-methoxypyrrolidin-1-yl)imidazo[1,2-b]pyridazin-6-yl)pyrimidine-2,4(1H,3H)-dione], for which the concentration for a half-maximal effect (EC50) at CD73 [1] was found to be 18.3 nM. Further, the concentration for half-maximal inhibition (IC50) on CD73 [2] came out at 5.76 nM.
As to `O=c1[nH]cc(-c2cc(N3C[C@H](Oc4ncc(C(F)(F)F)cn4)C(F)(F)C3)c3nccn3n2)c(=O)[nH]1` [Example 531, (S)-5-(8-(3,3-difluoro-4-((5-(trifluoromethyl)pyrimidin-2-yl)oxy)pyrrolidin-1-yl)imidazo[1,2-b]pyridazin-6-yl)pyrimidine-2,4(1H,3H)-dione], on CD73 [1], the half-maximal effective concentration (EC50) turned out to be 11.4 nM. For the same molecule, on CD73 [2], the IC50 is 1.34 nM.
The like results for `O=c1[nH]cc(-c2cc(N3CC(Oc4ccc(C(F)(F)F)cn4)C(F)(F)C3)c3nccn3n2)c(=O)[nH]1` (centres unmarked) [Example 523, 5-(8-(3,3-difluoro-4-((5-(trifluoromethyl)pyridin-2-yl)oxy)pyrrolidin-1-yl)imidazo[1,2-b]pyridazin-6-yl)pyrimidine-2,4(1H,3H)-dione] were, in that order, 3.96 nM and 1.92 nM.
The like results for `O=c1[nH]cc(-c2cc(N3CC(F)(C(F)(F)F)C3)n3ncnc3n2)c(=O)[nH]1` [Example 402, 5-(7-(3-fluoro-3-(trifluoromethyl)azetidin-1-yl)-[1,2,4]triazolo[1,5-a]pyrimidin-5-yl)pyrimidine-2,4(1H,3H)-dione] were, in that order, 136 nM and 53.2 nM.
The like results for `O=c1[nH]cc(-c2cc([C@H]3C[C@@H]3c3ccc4ccn(CC(F)(F)F)c(=O)c4c3)c3nccn3n2)c(=O)[nH]1` [Example 707, 5-(8-((1S,2S)-2-(1-oxo-2-(2,2,2-trifluoroethyl)-1,2-dihydroisoquinolin-7-yl)cyclopropyl)imidazo[1,2-b]pyridazin-6-yl)pyrimidine-2,4(1H,3H)-dione] were, in that order, 8.88 nM and 2.65 nM.
At CD73 [1], `O=c1[nH]cc(-c2cc(N3CCC(F)(c4ccc(C(F)(F)F)cc4)C3)c3nccn3n2)c(=O)[nH]1` (centres unmarked) [Example 256, 5-(8-(3-fluoro-3-(4-(trifluoromethyl)phenyl)pyrrolidin-1-yl)imidazo[1,2-b]pyridazin-6-yl)pyrimidine-2,4(1H,3H)-dione] gave an EC50 of 185 nM. Moreover, half-maximal inhibition at CD73 [2] (IC50) required 43.1 nM.
The like results for `O=c1[nH]cc(-c2cc(N3CC(F)(F)C4(CNC4)C3)c3nccn3n2)c(=O)[nH]1` [Example 501, 5-(8-(8,8-difluoro-2,6-diazaspiro[3.4]octan-6-yl)imidazo[1,2-b]pyridazin-6-yl)pyrimidine-2,4(1H,3H)-dione] were, in that order, 108 nM and 20.9 nM.
With `O=c1[nH]cc(-c2cc([C@H]3C[C@@H]3c3ccc4cnn(CC(F)F)c4c3)c3nccn3n2)c(=O)[nH]1` (racemic) [Example 123, 5-(8-((1S,2S)-2-(1-(2,2-difluoroethyl)-1H-indazol-6-yl)cyclopropyl)imidazo[1,2-b]pyridazin-6-yl)pyrimidine-2,4(1H,3H)-dione and 5-(8-((1R,2R)-2-(1-(2,2-difluoroethyl)-1H-indazol-6-yl)cyclopropyl)imidazo[1,2-b]pyridazin-6-yl)pyrimidine-2,4(1H,3H)-dione], the 50% effective concentration (EC50) at CD73 [1] turned out to be 0.37 nM. For the same molecule, the IC50 at CD73 [2] was determined as 0.69 nM.
For `O=c1[nH]cc(-c2cc(N3C[C@H](Oc4cc(C(F)(F)F)cnn4)C(F)(F)C3)c3ncc(F)n3n2)c(=O)[nH]1` [Example 666, (S)-5-(8-(3,3-difluoro-4-((5-(trifluoromethyl)pyridazin-3-yl)oxy)pyrrolidin-1-yl)-3-fluoroimidazo[1,2-b]pyridazin-6-yl)pyrimidine-2,4(1H,3H)-dione], in that order: 2.8 nM and 1.8 nM.
The like results for `O=c1[nH]cc(-c2cc(NCC(F)(F)F)c3nccn3n2)c(=O)[nH]1` [Example 672, 5-(8-((2,2,2-trifluoroethyl)amino)imidazo[1,2-b]pyridazin-6-yl)pyrimidine-2,4(1H,3H)-dione] were, in that order, 383 nM and 148 nM.
For `CC1(CC(F)F)CN(c2cc(-c3c[nH]c(=O)[nH]c3=O)nn3ccnc23)C1` [Example 444, 5-(8-(3-(2,2-difluoroethyl)-3-methylazetidin-1-yl)imidazo[1,2-b]pyridazin-6-yl)pyrimidine-2,4(1H,3H)-dione], in that order: 356 nM and 71 nM.
In turn, `O=c1[nH]cc(-c2cc(N3C[C@@H](Oc4ccc(C(F)(F)F)cn4)C(F)(F)C3)c3nccn3n2)c(=O)[nH]1` [Example 530, (R)-5-(8-(3,3-difluoro-4-((5-(trifluoromethyl)pyridin-2-yl)oxy)pyrrolidin-1-yl)imidazo[1,2-b]pyridazin-6-yl)pyrimidine-2,4(1H,3H)-dione] had a 50% effective concentration (EC50) at CD73 [1] of 50.8 nM. Moreover, the 50% inhibitory concentration (IC50) on CD73 [2] was 12.4 nM.
For `O=c1[nH]cc(-c2cc(N3CCC(Cn4ccnn4)C3)c3nccn3n2)c(=O)[nH]1` (centres unmarked) [Example 592, 5-(8-(3-((1H-1,2,3-triazol-1-yl)methyl)pyrrolidin-1-yl)imidazo[1,2-b]pyridazin-6-yl)pyrimidine-2,4(1H,3H)-dione], in that order: 774 nM and 96.2 nM.
In turn, `Cc1nc2ccc([C@H]3C[C@@H]3c3cc(-c4c[nH]c(=O)[nH]c4=O)nn4c(F)cnc34)cc2s1` (racemic) [Example 580, 5-(3-fluoro-8-((1S,2S)-2-(2-methylbenzo[d]thiazol-6-yl)cyclopropyl)imidazo[1,2-b]pyridazin-6-yl)pyrimidine-2,4(1H,3H)-dione] gave a concentration giving a half-maximal response (EC50) on CD73 [1] of 5.79 nM. Further, inhibition on CD73 [2] was half-maximal at 1.63 nM (IC50).
For `O=c1[nH]cc(-c2cc([C@H]3C[C@@H]3c3ccc4cnn(CC(F)(F)F)c4c3F)c3ncnn3n2)c(=O)[nH]1` [Example 629, 5-(8-((1S,2S)-2-(7-fluoro-1-(2,2,2-trifluoroethyl)-1H-indazol-6-yl)cyclopropyl)-[1,2,4]triazolo[1,5-b]pyridazin-6-yl)pyrimidine-2,4(1H,3H)-dione], in that order: 0.05 nM and 0.2 nM.
For `O=c1[nH]cc(-c2cc(N3CCC(F)(c4ccccc4)C3)c3nccn3n2)c(=O)[nH]1` (centres unmarked) [Example 253, 5-(8-(3-fluoro-3-phenylpyrrolidin-1-yl)imidazo[1,2-b]pyridazin-6-yl)pyrimidine-2,4(1H,3H)-dione], in that order: 160 nM and 20 nM.
